Test results reported in patent US11999758B2, “Inhibitors of the YAP/TAZ-TEAD interaction and their use in the treatment of cancer” (INVENTIVA, priority 2018, dated 2024).

Target: T1, YAP-TEAD interaction (Homo sapiens, UniProt P28347)
T1 construct: expressed in transfected cells; host or cells: HEK293 GripTite 293 MSR (Invitrogen R795-07)
Test: Cell-based TEAD-GAL4 transactivation assay (luciferase reporter)
Conditions: HEK293 cells transfected with TEAD1-Gal4, YAP mutant (S127A, S397A) and luciferase reporter, compounds 0.1 μM to 30 μM; for Emax: HEK293, 24 h, read-out: TEAD-GAL4 Transactivation activity Max Act; for IC50 / TEAD-GAL4 Transactivation activity Max Act: 24 h
Protocol: To identify inhibitors of YAP-TEAD interaction, a transient transactivation assay was carried out on HEK293 cell line (HEK293 GripTite™ 293 MSR (Invitrogen R795-07)) using plasmids containing the full length TEAD1 sequences, the full length YAP mutant (S127A, S397A) and a luciferase gene reporter. All expression constructs were performed into a pSG5 backbone plasmid in which the SV40 promoter was replaced by the CMV promoter. The TEAD1 construct was prepared by cloning the full-length human TEAD1 cDNA in fusion with the Gal4 DNA Binding Domain (AA 1-148) into pSG5_CMV to create the TEAD1 (FL)_hum_pSG5Gal4_CMV. The full-length YAP mutant (S127A, S397A) was also cloned into pSG5_CMV to create the YAP (FL)_hum_pSG5_mutS127A_S397A_CMV. The reporter plasmid GAL4(5×RE)_TK(−105/+56)_pGL3-Basic contains 5 copies of the GAL4 responsive element (5′-TCGGAGGACAGTACTCC-3′) upstream of the thymidine kinase (TK) promoter (−105/+56) inserted in a pGL3-Basic vector. To evaluate the selectivity of our compounds in blocking the YAP-TEAD interaction, a counter-screening protein-protein interaction transactivation assay was also established. Briefly, two other expression plasmids, the pBD-P53 which expresses the P53 (AA 72-390) in fusion with Gal4 and the pAD-SV40T which expresses the SV40 large T antigen (AA 84-708,AgT), were created. HEK293 cells were seeded at 5×10^4 cells/well in 96 well plates (assay plates) in DMEM medium containing 4.5 g/L D-glucose, 10% high inactivated (HI) fetal bovine serum 1% Glutamax, 1% non-essential amino acid and 1% sodium pyruvate and 0.5% penicillin/streptomycin at 37° C. in a humidified atmosphere of 8% CO2. After 24 h, transfections were performed using Jet-PEI as transfectant (101B-010 Polyplus Transfection), according to the instructions of the manufacturer (N/P=10) and a ratio YAP/TEAD=10 (per well: 50 ng of YAP(FL), 5 ng of TEAD(FL) and 50 ng of reporter plasmid). Six hours after cell transfection, the plates (‘assay plate’) were washed with 100 μl PBS per well and cells were treated with compounds in semi-log from 0.1 μM to 30 μM or DMSO 0.5% as control in DMEM, 4.5 g/L D-Glucose without phenol red, 0.3% BSA, 1% glutamax, 1% NEAA, 1% sodium pyruvate. 24 h later, the luciferase activity was determined after addition of 100 μl of Steady Glo™ luciferase assay system (Promega E2550) according to the manufacturer's directions. Luciferase activity in cell extracts was measured by reading luminescence using the Envision device.
The cellular response was determined by fitting the concentration response curves using a 3-parameter curve fit equation and determining the concentration that inhibited the luciferase activity by 50%.

T1 sequence (P28347 whole entry): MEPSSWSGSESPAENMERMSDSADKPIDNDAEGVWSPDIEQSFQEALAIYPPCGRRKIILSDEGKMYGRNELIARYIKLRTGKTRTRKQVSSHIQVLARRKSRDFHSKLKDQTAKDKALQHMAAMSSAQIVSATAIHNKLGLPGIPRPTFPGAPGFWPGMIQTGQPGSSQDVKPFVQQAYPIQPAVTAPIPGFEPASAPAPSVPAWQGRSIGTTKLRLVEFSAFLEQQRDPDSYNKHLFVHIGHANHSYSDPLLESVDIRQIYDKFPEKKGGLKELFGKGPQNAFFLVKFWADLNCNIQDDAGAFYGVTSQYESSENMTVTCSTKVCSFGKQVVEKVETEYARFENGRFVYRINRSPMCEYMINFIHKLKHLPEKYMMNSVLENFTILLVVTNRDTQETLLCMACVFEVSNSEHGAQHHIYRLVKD

SMILES | Emax [%] | IC50 [nM] | TEAD-GAL4 Transactivation activity Max Act [%]
Cc1csc2c(N3N=C(c4ccc5c(c4)COB5O)CCC3C)ncnc12 (single isomer, unassigned; (+)) [Ex119, (+) 4-[6-(1-hydroxy-3H-2,1-benzoxaborol-5-yl)-3-methyl-4,5-dihydro-3H-pyridazin-2-yl]-7-methyl-thieno[3,2-d]pyrimidine] | 77 | 430 | –
Cc1csc2c(N3N=C(c4ccc5c(c4)COB5O)CCC3C)ncnc12 (single isomer, unassigned; (-)) [Ex120, (−) 4-[6-(1-hydroxy-3H-2,1-benzoxaborol-5-yl)-3-methyl-4,5-dihydro-3H-pyridazin-2-yl]-7-methyl-thieno[3,2-d]pyrimidine] | – | 500 | 84
COc1cc(C2=NN(c3ncnc4c(OC)cccc34)C(C)CC2)ccc1B(O)O (single isomer, unassigned; isomer 1) [Ex124, [2-methoxy-4-[2-(8-methoxyquinazolin-4-yl)-3-methyl-4,5-dihydro-3H-pyridazin-6-yl]phenyl]boronic acid (isomer 1)] | 93 | 7270 | –
COc1cc(C2=NN(c3ncnc4c(OC)cccc34)C(C)CC2)ccc1B(O)O (single isomer, unassigned; isomer 2) [Ex125, [2-methoxy-4-[2-(8-methoxyquinazolin-4-yl)-3-methyl-4,5-dihydro-3H-pyridazin-6-yl]phenyl]boronic acid (isomer 2)] | – | 3520 | 86
CCN(/N=C/c1ccc(B(O)O)c(OC)c1)c1ncnc2c(C)csc12 [Ex62, [4-[(E)-[ethyl-(7-methylthieno[3,2-d]pyrimidin-4-yl)hydrazono]methyl]-2-methoxy-phenyl]boronic acid] | 58 | 990 | –
CCN(/N=C/c1ccc(B(O)O)c(OC)c1)c1ncnc2ccsc12 [Ex63, [4-[(E)-[ethyl(thieno[3,2-d]pyrimidin-4-yl)hydrazono]methyl]-2-methoxy-phenyl]boronic acid] | 63 | 690 | –
CCN(/N=C/c1ccc(B(O)O)c(OC)c1)c1ncnc2ncsc12 [Ex64, [4-[(E)-[ethyl(thiazolo[4,5-d]pyrimidin-7-yl)hydrazono]methyl]-2-methoxy-phenyl]boronic acid] | 96 | 2760 | –
CCN(/N=C/c1ccc(B(O)O)c(OC)c1)c1ncnc2occc12 [Ex65, [4-[(E)-[ethyl(furo[2,3-d]pyrimidin-4-yl)hydrazono]methyl]-2-methoxy-phenyl]boronic acid] | 92 | 1980 | –
CCN(/N=C/c1ccc(B(O)O)c(OC)c1)c1ncnc2c1ccn2C [Ex66, [4-[(E)-[ethyl-(7-methylpyrrolo[2,3-d]pyrimidin-4-yl)hydrazono]methyl]-2-methoxy-phenyl]boronic acid] | 87 | 2150 | –
COc1cc(/C=N/N(CC(C)C)c2ncnc3c(C)csc23)ccc1B(O)O [Ex67, [4-[(E)-[isobutyl-(7-methylthieno[3,2-d]pyrimidin-4-yl)hydrazono]methyl]-2-methoxy-phenyl]boronic acid] | 89 | 3820 | –
COc1cc(/C=N/N(CC(C)C)c2nc(C)nc3ccsc23)ccc1B(O)O [Ex68, [4-[(E)-[isobutyl-(2-methylthieno[3,2-d]pyrimidin-4-yl)hydrazono]methyl]-2-methoxy-phenyl]boronic acid] | 84 | 2630 | –
COc1cc(/C=N/N(CC(C)C)c2ncnc3cc(C)sc23)ccc1B(O)O [Ex69, [4-[(E)-[isobutyl-(6-methylthieno[3,2-d]pyrimidin-4-yl)hydrazono]methyl]-2-methoxy-phenyl]boronic acid] | 92 | 2340 | –
COCCN(/N=C/c1ccc(B(O)O)c(OC)c1)c1ncnc2ccsc12 [Ex70, [2-methoxy-4-[(E)-[2-methoxyethyl(thieno[3,2-d]pyrimidin-4-yl) hydrazono]methyl]phenyl]boronic acid] | 87 | 1880 | –
COc1cc(C2=NN(c3ncnc4ccsc34)C(C)CC2)ccc1B(O)O (stereo not drawn) [Ex72, [2-methoxy-4-(3-methyl-2-thieno[3,2-d]pyrimidin-4-yl-4,5-dihydro-3H-pyridazin-6-yl)phenyl]boronic acid] | 85 | 1860 | –
COc1cc(C2=NN(c3ncnc4c3ccn4C)C(C)CC2)ccc1B(O)O (stereo not drawn) [Ex73, [2-methoxy-4-[3-methyl-2-(7-methylpyrrolo[2,3-d]pyrimidin-4-yl)-4,5-dihydro-3H-pyridazin-6-yl]phenyl]boronic acid] | 88 | 2240 | –
COc1cc(C2=NN(c3ncnc4cc(F)ccc34)CC(C)O2)ccc1B(O)O (stereo not drawn) [Ex74, [4-[4-(7-fluoroquinazolin-4-yl)-6-methyl-5,6-dihydro-1,3,4-oxadiazin-2-yl]-2-methoxy-phenyl]boronic acid] | 83 | 2360 | –
CCN(/N=C/c1ccc2c(c1)COB2O)c1ncnc2cn[nH]c12 [Ex78, N-ethyl-N-[(E)-(1-hydroxy-3H-2,1-benzoxaborol-5-yl)methyleneamino]-1H-pyrazolo[4,3-d]pyrimidin-7-amine] | 75 | 2220 | –
CCN(/N=C/c1ccc2c(c1)COB2O)c1ncnc2cc[nH]c12 [Ex81, N-ethyl-N-[(E)-(1-hydroxy-3H-2,1-benzoxaborol-5-yl)methyleneamino]-5H-pyrrolo[3,2-d]pyrimidin-4-amine] | 79 | 1750 | –
CCCn1ccc2c(N(CC)/N=C/c3ccc4c(c3)COB4O)ncnc21 [Ex84, N-ethyl-N-[(E)-(1-hydroxy-3H-2,1-benzoxaborol-5-yl)methyleneamino]-7-propyl-pyrrolo[2,3-d]pyrimidin-4-amine] | 85 | 1030 | –
CCN(/N=C/c1ccc2c(c1)COB2O)c1ncnc2c1ccn2CC [Ex85, N,7-diethyl-N-[(E)-(1-hydroxy-3H-2,1-benzoxaborol-5-yl)methyleneamino]pyrrolo [2,3-d]pyrimidin-4-amine] | 81 | 610 | –
CCN(/N=C/c1ccc2c(c1)COB2O)c1ncnc2[nH]ncc12 [Ex86, N-ethyl-N-[(E)-(1-hydroxy-3H-2,1-benzoxaborol-5-yl)methyleneamino]-1H-pyrazolo[3,4-d]pyrimidin-4-amine] | 81 | 650 | –
CCN(/N=C/c1ccc2c(c1)COB2O)c1ncnc2ncsc12 [Ex87, N-ethyl-N-[(E)-(1-hydroxy-3H-2,1-benzoxaborol-5-yl)methyleneamino]-thiazolo[4,5-d]pyrimidin-7-amine] | 82 | 590 | –
CCN(/N=C/c1ccc2c(c1)COB2O)c1nc(C)nc2c(C)csc12 [Ex88, N-ethyl-N-[(E)-(1-hydroxy-3H-2,1-benzoxaborol-5-yl)methyleneamino]-2,7-dimethyl-thieno[3,2-d]pyrimidin-4-amine] | 80 | 630 | –
CCN(/N=C/c1ccc2c(c1)COB2O)c1ncnc2cc(F)ccc12 [Ex89, N-ethyl-7-fluoro-N-[(E)-(1-hydroxy-3H-2,1-benzoxaborol-5-yl)-methyleneamino]quinazolin-4-amine] | 85 | 820 | –
CCN(/N=C/c1ccc2c(c1)COB2O)c1ncnc2cc(C)sc12 [Ex90, N-ethyl-N-[(E)-(1-hydroxy-3H-2,1-benzoxaborol-5-yl)methyleneamino]-6-methyl-thieno[3,2-d]pyrimidin-4-amine] | 83 | 1260 | –
CCN(/N=C/c1ccc2c(c1)COB2O)c1ncnc2c3c(sc12)CCCC3 [Ex91, N-ethyl-N-[(E)-(1-hydroxy-3H-2,1-benzoxaborol-5-yl)methyleneamino]-6,7,8,9-tetrahydrobenzothiopheno[3,2-d]pyrimidin-4-amine] | 85 | 640 | –
Cc1csc2c(N(CC(C)C)/N=C/c3ccc4c(c3)COB4O)ncnc12 [Ex93, N-[(E)-(1-hydroxy-3H-2,1-benzoxaborol-5-yl)methyleneamino]-N-isobutyl-7-methyl-thieno[3,2-d]pyrimidin-4-amine] | 80 | 710 | –
